The experiment deals with recombinant human SAE enzyme (Homo sapiens (Human), UniProt Q9UBT2). Kind of experiment: SAE HTRF enzyme assay. The class given is biochemical. Conditions: for inhibition at 0.111 µM: read-out: Percent Inhibition. The procedure, abridged:
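First, recombinant human SAE (0.11 nM) transfers Sumo-Flag onto Ubc9-GST using 0.5 μM ATP for 105 min at 24° C. Next, EDTA-containing detection buffer with labelled anti-Flag and anti-GST antibodies is added for 2 h. Finally, FRET is quantified and percent inhibition or IC50 derived.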

Setting [1] is: SAE inhibition at compound concentration 0.111 μM.
Where [2] appears, read: SAE inhibition, class symbols, legend in nM.

Some results are limits rather than exact numbers.

Sequence of recombinant human SAE enzyme (Q9UBT2 whole entry): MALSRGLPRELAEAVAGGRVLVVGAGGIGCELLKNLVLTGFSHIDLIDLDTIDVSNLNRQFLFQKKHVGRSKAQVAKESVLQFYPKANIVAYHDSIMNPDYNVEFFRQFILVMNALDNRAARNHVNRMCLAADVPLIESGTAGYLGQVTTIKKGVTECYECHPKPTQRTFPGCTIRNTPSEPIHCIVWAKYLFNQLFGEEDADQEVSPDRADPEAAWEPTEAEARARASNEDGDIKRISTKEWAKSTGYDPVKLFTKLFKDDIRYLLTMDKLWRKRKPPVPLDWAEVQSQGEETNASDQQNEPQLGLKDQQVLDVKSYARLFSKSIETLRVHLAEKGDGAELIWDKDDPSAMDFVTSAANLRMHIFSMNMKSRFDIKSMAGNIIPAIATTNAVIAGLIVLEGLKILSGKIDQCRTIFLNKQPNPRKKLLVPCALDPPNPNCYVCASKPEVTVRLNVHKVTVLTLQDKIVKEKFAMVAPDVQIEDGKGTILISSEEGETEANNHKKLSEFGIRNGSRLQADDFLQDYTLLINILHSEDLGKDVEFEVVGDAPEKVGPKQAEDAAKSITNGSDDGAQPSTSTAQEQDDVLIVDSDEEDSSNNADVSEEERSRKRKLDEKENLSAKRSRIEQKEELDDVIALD
Sequence of recombinant human SAE enzyme (Q9UBE0 whole entry partner): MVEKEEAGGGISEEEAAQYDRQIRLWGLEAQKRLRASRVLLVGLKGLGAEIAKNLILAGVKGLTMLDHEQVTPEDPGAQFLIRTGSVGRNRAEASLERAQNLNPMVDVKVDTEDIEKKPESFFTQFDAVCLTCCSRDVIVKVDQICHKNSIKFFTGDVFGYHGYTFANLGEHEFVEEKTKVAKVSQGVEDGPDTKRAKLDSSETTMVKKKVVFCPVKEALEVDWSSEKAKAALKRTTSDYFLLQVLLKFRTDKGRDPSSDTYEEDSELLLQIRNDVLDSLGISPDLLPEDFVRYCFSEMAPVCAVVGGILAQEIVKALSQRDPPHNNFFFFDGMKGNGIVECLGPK

For `Cc1sc(C(=O)c2cncnc2N[C@@H]2C[C@H](COS(N)(=O)=O)[C@@H](O)C2)cc1[C@@H]1OCCc2ccc(Cl)nc21` (single isomer, unassigned) [I-286b, [(1R,2S,4R)-4-{[5-({4-[(8S)-2-chloro-5,8-dihydro-6H-pyrano[3,4-b]pyridin-8-yl]-5-methyl-2-thienyl}carbonyl)pyrimidin-4-yl]amino}-2-hydroxycyclopentyl]methyl sulfamate or [(1R,2S,4R)-4-{[5-({4-[(8R)-2-chloro-5,8-dihydro-6H-pyrano[3,4-b]pyridin-8-yl]-5-methyl-2-thienyl}carbonyl)pyrimidin-4-yl]amino}-2-hydroxycyclopentyl]methyl sulfamate], the “Percent Inhibition” value under setting [1] is reported as 99%. The IC50 under setting [2] is under 10 nM.

With `Cc1sc(C(=O)c2cncnc2N[C@@H]2C[C@H](COS(N)(=O)=O)[C@@H](O)C2)cc1[C@H](C)c1cccc(Cl)c1` (single isomer, unassigned) [I-135a, [(1R,2S,4R)-4-{[5-({4-[(1R)-1-(3-chlorophenyl)ethyl]-5-methyl-2-thienyl}carbonyl)pyrimidin-4-yl]amino}-2-hydroxycyclopentyl]methyl sulfamate or [(1R,2S,4R)-4-{[5-({4-[(1S)-1-(3-chlorophenyl)ethyl]-5-methyl-2-thienyl}carbonyl)pyrimidin-4-yl]amino}-2-hydroxycyclopentyl]methyl sulfamate], the “Percent Inhibition” value (Concentration 0.111 μM) was found to be 82. Further, where the note is “class symbols A/B/C”, the IC50 lay within 10 to 100 nM.

For `NS(=O)(=O)OC[C@H]1C[C@@H](Nc2ncncc2C(=O)c2cc(Cc3cccc(Cl)c3)c(CC3CCOCC3)s2)C[C@@H]1O` [I-110, {(1R,2S,4R)-4-[(5-{[4-(3-chlorobenzyl)-5-(tetrahydro-2H-pyran-4-ylmethyl)-2-thienyl]carbonyl}pyrimidin-4-yl)amino]-2-hydroxycyclopentyl}methyl sulfamate], the inhibition at 0.111 µM (Concentration 0.111 μM) came to 98%. Also, the half-inhibitory concentration (IC50) (class symbols A/B/C) is under 10 nM.

With `Cc1cn(Cc2csc(C(=O)c3cncnc3N[C@@H]3C[C@H](COS(N)(=O)=O)[C@@H](O)C3)c2)c2ccccc12` [I-105, [(1R,2S,4R)-2-Hydroxy-4-{[5-({4-[(3-methyl-1H-indol-1-yl)methyl]-2-thienyl}carbonyl)pyrimidin-4-yl]amino}cyclopentyl]methyl sulfamate], the inhibition at 0.111 µM (Concentration 0.111 μM) was 96%. Further, under “class symbols A/B/C”, the IC50 is under 10 nM.

Regarding `NS(=O)(=O)OC[C@H]1C[C@@H](Nc2ncncc2C(=O)c2cc([C@H](O)c3cccc(Cl)n3)c(Cl)s2)C[C@@H]1O` (single isomer, unassigned) [I-2b, [(1R,2S,4R)-4-{[5-({5-chloro-4-[(S)-(6-chloropyridin-2-yl)(hydroxy)methyl]-2-thienyl}carbonyl)pyrimidin-4-yl]amino}-2-hydroxycyclopentyl]methyl sulfamate or [(1R,2S,4R)-4-{[5-({5-chloro-4-[(R)-(6-chloropyridin-2-yl)(hydroxy)methyl]-2-thienyl}carbonyl)pyrimidin-4-yl]amino}-2-hydroxycyclopentyl]methyl sulfamate], the “Percent Inhibition” value (Concentration 0.111 μM) was determined as 61. Further, the IC50 (class symbols A/B/C) lay within 10 to 100 nM.

For the molecule `NS(=O)(=O)OC[C@H]1C[C@@H](Nc2ncncc2C(=O)c2cc([C@H](O)C3CCCCC3)c(Cl)s2)C[C@@H]1O` (mixture of isomers) [I-172, [(1R,2S,4R)-4-{[5-({5-chloro-4-[(R)-cyclohexyl(hydroxy)methyl]-2-thienyl}carbonyl)pyrimidin-4-yl]amino}-2-hydroxycyclopentyl]methyl sulfamate and [(1R,2S,4R)-4-{[5-({5-chloro-4-[(S)-cyclohexyl(hydroxy)methyl]-2-thienyl}carbonyl)pyrimidin-4-yl]amino}-2-hydroxycyclopentyl]methyl sulfamate], the “Percent Inhibition” value (Concentration 0.111 μM) was 88. In addition, the half-maximal inhibitory concentration (IC50) (class symbols A/B/C) was 10 to 100 nM.

In the case of `CC[C@H](C)[C@H](N)C(=O)O[C@H]1C[C@H](Nc2ncncc2C(=O)c2cc([C@@H]3OCCc4ccc(Cl)cc43)c(C)s2)C[C@@H]1COS(N)(=O)=O.Cl` [I-363], the “Percent Inhibition” value under setting [1] stood at 57%.

With `N[C@@H](c1cccc(Br)n1)c1cc(C(=O)c2cncnc2N[C@@H]2C[C@H](COS(N)(=O)=O)[C@@H](O)[C@H]2O)sc1Cl` (single isomer, unassigned) [I-10a, [(1R,2R,3S,4R)-4-{[5-({4-[(R)-amino(6-bromopyridin-2-yl)methyl]-5-chloro-2-thienyl}carbonyl)pyrimidin-4-yl]amino}-2,3-dihydroxycyclopentyl]methyl sulfamate or [(1R,2R,3S,4R)-4-{[5-({4-[(S)-amino(6-bromopyridin-2-yl)methyl]-5-chloro-2-thienyl}carbonyl)pyrimidin-4-yl]amino}-2,3-dihydroxycyclopentyl]methyl sulfamate], the “Percent Inhibition” value (Concentration 0.111 μM) was 100. In addition, the IC50 (class symbols A/B/C) is under 10 nM.

As for `Cc1sc(C(=O)c2cncnc2N[C@@H]2C[C@H](COS(N)(=O)=O)[C@@H](O)C2)cc1[C@@H]1OCCc2cccnc21` (single isomer, unassigned) [I-285a, [(1R,2S,4R)-4-{[5-({4-[(8S)-5,8-dihydro-6H-pyrano[3,4-b]pyridin-8-yl]-5-methyl-2-thienyl}carbonyl)pyrimidin-4-yl]amino}-2-hydroxycyclopentyl]methyl sulfamate or [(1R,2S,4R)-4-{[5-({4-[(8R)-5,8-dihydro-6H-pyrano[3,4-b]pyridin-8-yl]-5-methyl-2-thienyl}carbonyl)pyrimidin-4-yl]amino}-2-hydroxycyclopentyl]methyl sulfamate], under setting [1], the “Percent Inhibition” value was 101%. Moreover, under setting [2], the IC50 was under 10 nM.

For `Cc1sc(C(=O)c2cncnc2N[C@@H]2C[C@H](COS(N)(=O)=O)[C@@H](O)C2)cc1Sc1ccccc1` [I-137, {(1R,2S,4R)-2-hydroxy-4-[(5-{[5-methyl-4-(phenylsulfanyl)-2-thienyl]carbonyl}pyrimidin-4-yl)amino]cyclopentyl}methyl sulfamate], under “Concentration 0.111 μM”, the inhibition at 0.111 µM is 95%.

Consider `Cc1sc(C(=O)c2cncnc2N[C@@H]2C[C@H](COS(N)(=O)=O)[C@@H](O)C2)cc1[C@H]1SCc2ccc(Cl)cc21` (racemic) [I-359b, [(1RS,2SR,4RS)-4-[5-[4-[(1S)-6-chloro-1,3-dihydro-2-benzothiophene-1-yl]-5-methyl-thiophene-2-carbonyl]pyrimidin-4-yl]amino]-2-hydroxy-cyclopentyl]methyl sulfamate], for which the “Percent Inhibition” value under setting [1] turned out to be 95%. For the same molecule, the half-maximal inhibitory concentration (IC50) under setting [2] is under 10 nM.

Consider `Cc1sc(C(=O)c2cncnc2N[C@@H]2C[C@H](COS(N)(=O)=O)[C@@H](O)C2)cc1[C@H](C)c1cccc(Cl)c1` (single isomer, unassigned) [I-135b, [(1R,2S,4R)-4-{[5-({4-[(1R)-1-(3-chlorophenyl)ethyl]-5-methyl-2-thienyl}carbonyl)pyrimidin-4-yl]amino}-2-hydroxycyclopentyl]methyl sulfamate or [(1R,2S,4R)-4-{[5-({4-[(1S)-1-(3-chlorophenyl)ethyl]-5-methyl-2-thienyl}carbonyl)pyrimidin-4-yl]amino}-2-hydroxycyclopentyl]methyl sulfamate], for which the “Percent Inhibition” value (Concentration 0.111 μM) is listed as 95. The IC50 (class symbols A/B/C) was under 10 nM.

As to `Cc1oc(C(=O)c2cncnc2N[C@@H]2C[C@H](COS(N)(=O)=O)[C@@H](O)C2)cc1[C@@H]1OCCc2ccc(Cl)cc21` (mixture of isomers) [I-270, {(1R,2S,4R)-4-[(5-{4-[(1R)-7-chloro-3,4-dihydro-1H-isochromen-1-yl]-5-methyl-2-furoyl}pyrimidin-4-yl)amino]-2-hydroxycyclopentyl}methyl sulfamate and {(1R,2S,4R)-4-[(5-{4-[(1S)-7-chloro-3,4-dihydro-1H-isochromen-1-yl]-5-methyl-2-furoyl}pyrimidin-4-yl)amino]-2-hydroxycyclopentyl}methyl sulfamate], the “Percent Inhibition” value (Concentration 0.111 μM) was 99. In addition, for the setting “class symbols A/B/C”, the IC50 is under 10 nM.

On to `Cc1sc(C(=O)c2cncnc2N[C@@H]2C[C@H](COS(N)(=O)=O)[C@@H](O)C2)cc1C1OCCc2oc(Cl)cc21` (single isomer, unassigned) [I-298b, [(1R,2S,4R)-4-{[5-({4-[(4R)-2-chloro-6,7-dihydro-4H-furo[3,2-c]pyran-4-yl]-5-methyl-2-thienyl}carbonyl)pyrimidin-4-yl]amino}-2-hydroxycyclopentyl]methyl sulfamate or [(1R,2S,4R)-4-{[5-({4-[(4S)-2-chloro-6,7-dihydro-4H-furo[3,2-c]pyran-4-yl]-5-methyl-2-thienyl}carbonyl)pyrimidin-4-yl]amino}-2-hydroxycyclopentyl]methyl sulfamate], for which the “Percent Inhibition” value under setting [1] amounted to 98%. Moreover, the IC50 under setting [2] is under 10 nM.

On to `NS(=O)(=O)OC[C@H]1C[C@@H](Nc2ncncc2C(=O)c2cc([C@@]3(c4cccc(Cl)c4)CCCN3)cs2)C[C@@H]1O` (mixture of isomers) [I-38, [(1R,2S,4R)-4-{[5-({4-[(2S)-2-(3-chlorophenyl)pyrrolidin-2-yl]-2-thienyl}carbonyl)pyrimidin-4-yl]amino}-2-hydroxycyclopentyl]methyl sulfamate and [(1R,2S,4R)-4-{[5-({4-[(2R)-2-(3-chlorophenyl)pyrrolidin-2-yl]-2-thienyl}carbonyl)pyrimidin-4-yl]amino}-2-hydroxycyclopentyl]methyl sulfamate], for which, under “Concentration 0.111 μM”, the “Percent Inhibition” value amounted to 101. Moreover, where the note is “class symbols A/B/C”, the concentration for half-maximal inhibition (IC50) is under 10 nM.

In the case of `Cc1sc(C(=O)c2cncnc2N[C@@H]2C[C@H](COS(N)(=O)=O)[C@@H](O)[C@H]2O)cc1[C@@H]1OCCc2ccccc21` (single isomer, unassigned) [I-250a, [(1R,2R,3S,4R)-4-{[5-({4-[(1R)-3,4-dihydro-1H-isochromen-1-yl]-5-methyl-2-thienyl}carbonyl)pyrimidin-4-yl]amino}-2,3-dihydroxycyclopentyl]methyl sulfamate or [(1R,2R,3S,4R)-4-{[5-({4-[(1S)-3,4-dihydro-1H-isochromen-1-yl]-5-methyl-2-thienyl}carbonyl)pyrimidin-4-yl]amino}-2,3-dihydroxycyclopentyl]methyl sulfamate], for the setting “Concentration 0.111 μM”, the “Percent Inhibition” value is 97. Moreover, for the setting “class symbols A/B/C”, the IC50 was under 10 nM.

The values are drawn from patent US10780090B2, “Heteroaryl compounds useful as inhibitors of SUMO activating enzyme” (Millennium Pharmaceuticals, Inc., priority 2014, dated 2020).
